# Experimental data reported in ChEMBL document CHEMBL4385613, “Discovery of Conformational Control Inhibitors Switching off the Activated c-KIT and Targeting a Broad Range of Clinically Relevant c-KIT Mutants” (J Med Chem, 2019).
# Columns and labels:
# Mus musculus = assay: Decrease in c-KIT phosphorylation in po dosed NOD-SCID mouse xenografted with human GIST430 cells harboring c-KIT exon 11 primary in-frame V560-L576 deletion mutant and exon 13 heterozygous secondary missense V654A mutant measured after 8 hrs by immunoblotting method; format: functional, organism-based
# [1] = molecular target: Mast/stem cell growth factor receptor Kit (Homo sapiens, UniProt P10721, D816V); assay: Inhibition of human c-KIT A loop exon 17 D816V single mutant using poly (Glu,Tyr) 4:1 as substrate in presence of 33P-gamma-ATP by hotspot kinase assay
# [2] = Antiproliferative activity against human GIST48B cells assessed as reduction in cell viability by methylene blue staining based assay; format: functional
# [3] = test system: Mast/stem cell growth factor receptor Kit (Homo sapiens), P10721 [T670I]; assay: Inhibition of human c-KIT ATP binding domain exon 14 T670I single mutant at 10 nM using poly (Glu,Tyr) 4:1 as substrate in presence of 33P-gamma-ATP by hotspot kinase assay relative to control
# [4] = molecular target: T1, Mast/stem cell growth factor receptor Kit (Homo sapiens, UniProt P10721); assay: Inhibition of recombinant human N-terminal 6x-His-tagged c-KIT (547 to 935 residues)/(694 to 753 residues deletion) expressed in baculovirus infected Sf9 insect cells assessed as decrease in poly (Glu,Tyr) 4:1 phosphorylation measured after 150 mins in presence of ATP by ADP-glo based luminescence assay
# [5] = test system: Mast/stem cell growth factor receptor Kit (Homo sapiens), P10721 [D816H]; details: at 10 nM
# Description: Inhibition of human c-KIT A loop exon 17 D816H single mutant at 10 nM using poly (Glu,Tyr) 4:1 as substrate in presence of 33P-gamma-ATP by hotspot kinase assay relative to control
# [6] = test system: Mast/stem cell growth factor receptor Kit (Homo sapiens), P10721 [V654A]; assay: Inhibition of human c-KIT ATP binding domain exon 13 V654A single mutant at 10 nM using poly (Glu,Tyr) 4:1 as substrate in presence of 33P-gamma-ATP by hotspot kinase assay relative to control
# [7] = molecular target: Mast/stem cell growth factor receptor Kit (Homo sapiens, UniProt P10721, V654A); assay: Inhibition of human c-KIT ATP binding domain exon 13 V654A single mutant using poly (Glu,Tyr) 4:1 as substrate in presence of 33P-gamma-ATP by hotspot kinase assay
# [8] = molecular target: Mast/stem cell growth factor receptor Kit (Homo sapiens, UniProt P10721, V560G); assay: Inhibition of human c-KIT JM domain exon 11 V560G single mutant using poly (Glu,Tyr) 4:1 as substrate in presence of 33P-gamma-ATP by hotspot kinase assay
# [9] = test system: Mast/stem cell growth factor receptor Kit (Homo sapiens), P10721 [V560G,D816V]; assay: Inhibition of human c-KIT A loop exon 11/17 V560G/D816V double mutant at 10 nM using poly (Glu,Tyr) 4:1 as substrate in presence of 33P-gamma-ATP by hotspot kinase assay relative to control
# [10] = test system: Mast/stem cell growth factor receptor Kit (Homo sapiens), P10721 [Y823D]; details: at 10 nM
# Description: Inhibition of human c-KIT A loop exon 17 Y823D single mutant at 10 nM using poly (Glu,Tyr) 4:1 as substrate in presence of 33P-gamma-ATP by hotspot kinase assay relative to control
# [11] = molecular target: Mast/stem cell growth factor receptor Kit (Homo sapiens, UniProt P10721, D816H); assay: Inhibition of human c-KIT A loop exon 17 D816H single mutant using poly (Glu,Tyr) 4:1 as substrate in presence of 33P-gamma-ATP by hotspot kinase assay
# [12] = molecular target: Mast/stem cell growth factor receptor Kit (Homo sapiens, UniProt P10721, A829P); assay: Inhibition of human c-KIT A loop exon 18 A829P single mutant using poly (Glu,Tyr) 4:1 as substrate in presence of 33P-gamma-ATP by hotspot kinase assay
# [13] = test system: Mast/stem cell growth factor receptor Kit (Homo sapiens), P10721 [V654A]; assay: Inhibition of human c-KIT ATP binding domain exon 13 V654A single mutant at 100 nM using poly (Glu,Tyr) 4:1 as substrate in presence of 33P-gamma-ATP by hotspot kinase assay relative to control
# [14] = test system: Mast/stem cell growth factor receptor Kit (Homo sapiens), P10721 [K642E]; assay: Inhibition of human c-KIT ATP binding domain exon 13 K642E single mutant at 10 nM using poly (Glu,Tyr) 4:1 as substrate in presence of 33P-gamma-ATP by hotspot kinase assay relative to control
# GIST430 [15] = assay: Antiproliferative activity against human GIST430 cells harboring c-KIT exon 11 primary in-frame V560-L576 deletion mutant and exon 13 heterozygous secondary missense V654A mutant assessed as reduction in cell viability by methylene blue staining based assay; format: functional
# [16] = test system: Mast/stem cell growth factor receptor Kit (Homo sapiens), P10721 [D820E]; details: at 100 nM
# Description: Inhibition of human c-KIT A loop exon 17 D820E single mutant at 100 nM using poly (Glu,Tyr) 4:1 as substrate in presence of 33P-gamma-ATP by hotspot kinase assay relative to control
# [17] = molecular target: Mast/stem cell growth factor receptor Kit (Homo sapiens, UniProt P10721, T670I); assay: Inhibition of human c-KIT ATP binding domain exon 14 T670I single mutant using poly (Glu,Tyr) 4:1 as substrate in presence of 33P-gamma-ATP by hotspot kinase assay
# [18] = test system: Mast/stem cell growth factor receptor Kit (Homo sapiens), P10721 [V559D,V654A]; assay: Inhibition of human c-KIT […] V559D/V654A double mutant at 10 nM using poly (Glu,Tyr) 4:1 as substrate in presence of 33P-gamma-ATP by hotspot kinase assay relative to control
# [19] = test system: Mast/stem cell growth factor receptor Kit (Homo sapiens), P10721 [V559D,V654A]; assay: Inhibition of human c-KIT […] V559D/V654A double mutant at 100 nM using poly (Glu,Tyr) 4:1 as substrate in presence of 33P-gamma-ATP by hotspot kinase assay relative to control
# [20] = test system: Mast/stem cell growth factor receptor Kit (Homo sapiens), P10721 [V560G,D816V]; assay: Inhibition of human c-KIT A loop exon 11/17 V560G/D816V double mutant at 100 nM using poly (Glu,Tyr) 4:1 as substrate in presence of 33P-gamma-ATP by hotspot kinase assay relative to control
# [21] = molecular target: T1, Mast/stem cell growth factor receptor Kit; assay: Inhibition of ATP-activated recombinant human N-terminal 6x-His-tagged c-KIT (547 to 935 residues)/(694 to 753 residues deletion) expressed in baculovirus infected Sf9 insect cells assessed as decrease in poly (Glu,Tyr) 4:1 phosphorylation incubated for 30 mins followed by ATP addition and measured after 30 mins by Kinase Glo based luminescence assay
# GIST430 [22] = assay: Antitumor activity against human GIST430 cells harboring c-KIT exon 11 primary in-frame V560-L576 deletion mutant and exon 13 heterozygous secondary missense V654A mutant xenografted in NOD-SCID mouse assessed as reduction in tumor size at 25, po administered for 2 weeks with 2 days rest after day 5 and measured thrice per week up to 14 days during compound dosing relative to control; format: functional; design: scale not given: the % may be the effect or the level left
# A549 = assay: Antiproliferative activity against human A549 assessed as reduction in cell viability after 72 hrs by MTS assay; format: functional; details: A549, 72 h
# [23] = molecular target: T1, Mast/stem cell growth factor receptor Kit; assay: Inhibition of unactivated recombinant human N-terminal 6x-His-tagged c-KIT (547 to 935 residues)/(694 to 753 residues deletion) expressed in baculovirus infected Sf9 insect cells assessed as decrease in poly (Glu,Tyr) 4:1 phosphorylation incubated for 30 mins followed by ATP addition and measured after 120 mins by Kinase Glo based luminescence assay
# Sequence of Mast/stem cell growth factor receptor Kit (Homo sapiens), P10721 [V559D,V654A] (P10721 whole entry V559D/V654A): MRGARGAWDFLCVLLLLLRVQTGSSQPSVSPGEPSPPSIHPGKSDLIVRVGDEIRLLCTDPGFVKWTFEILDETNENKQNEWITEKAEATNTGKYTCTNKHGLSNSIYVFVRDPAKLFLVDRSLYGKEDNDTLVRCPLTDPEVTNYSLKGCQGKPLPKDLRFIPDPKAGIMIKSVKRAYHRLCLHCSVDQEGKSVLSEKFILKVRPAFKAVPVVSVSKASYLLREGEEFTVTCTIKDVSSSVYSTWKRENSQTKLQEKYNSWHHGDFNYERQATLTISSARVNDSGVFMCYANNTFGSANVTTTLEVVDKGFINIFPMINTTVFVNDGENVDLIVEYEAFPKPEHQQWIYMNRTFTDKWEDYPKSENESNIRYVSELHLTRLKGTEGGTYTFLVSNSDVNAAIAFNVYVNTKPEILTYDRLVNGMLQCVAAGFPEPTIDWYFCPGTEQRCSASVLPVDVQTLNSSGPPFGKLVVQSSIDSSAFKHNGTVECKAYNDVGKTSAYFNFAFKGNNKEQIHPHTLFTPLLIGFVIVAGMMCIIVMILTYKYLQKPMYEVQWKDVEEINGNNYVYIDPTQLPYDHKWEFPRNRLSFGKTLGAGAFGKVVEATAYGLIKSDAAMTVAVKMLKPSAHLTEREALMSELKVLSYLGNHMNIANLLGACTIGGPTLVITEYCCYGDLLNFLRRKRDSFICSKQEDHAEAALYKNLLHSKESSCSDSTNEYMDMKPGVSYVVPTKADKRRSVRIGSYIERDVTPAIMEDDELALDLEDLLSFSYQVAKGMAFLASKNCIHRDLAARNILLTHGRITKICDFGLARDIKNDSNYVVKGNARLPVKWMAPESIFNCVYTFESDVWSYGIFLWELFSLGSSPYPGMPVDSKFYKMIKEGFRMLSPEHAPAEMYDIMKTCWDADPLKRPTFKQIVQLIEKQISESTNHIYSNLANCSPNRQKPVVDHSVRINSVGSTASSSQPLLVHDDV
# Sequence of Mast/stem cell growth factor receptor Kit (Homo sapiens), P10721 [V560G,D816V] (P10721 whole entry V560G/D816V, the tested form may be a part): as the sequence (P10721 whole entry V559D/V654A) above, with D559V, V560G, A654V, D816V counted along it
# Sequence of Mast/stem cell growth factor receptor Kit (Homo sapiens), P10721 [V654A] (P10721 whole entry V654A, the tested form may be a part): as the sequence (P10721 whole entry V559D/V654A) above, with D559V counted along it
# Sequence of Mast/stem cell growth factor receptor Kit (Homo sapiens), P10721 [D816H] (P10721 whole entry D816H, the tested form may be a part): as the sequence (P10721 whole entry V559D/V654A) above, with D559V, A654V, D816H counted along it
# Sequence of Mast/stem cell growth factor receptor Kit (Homo sapiens, UniProt P10721, V654A) (P10721 26-976 V654A limits assumed): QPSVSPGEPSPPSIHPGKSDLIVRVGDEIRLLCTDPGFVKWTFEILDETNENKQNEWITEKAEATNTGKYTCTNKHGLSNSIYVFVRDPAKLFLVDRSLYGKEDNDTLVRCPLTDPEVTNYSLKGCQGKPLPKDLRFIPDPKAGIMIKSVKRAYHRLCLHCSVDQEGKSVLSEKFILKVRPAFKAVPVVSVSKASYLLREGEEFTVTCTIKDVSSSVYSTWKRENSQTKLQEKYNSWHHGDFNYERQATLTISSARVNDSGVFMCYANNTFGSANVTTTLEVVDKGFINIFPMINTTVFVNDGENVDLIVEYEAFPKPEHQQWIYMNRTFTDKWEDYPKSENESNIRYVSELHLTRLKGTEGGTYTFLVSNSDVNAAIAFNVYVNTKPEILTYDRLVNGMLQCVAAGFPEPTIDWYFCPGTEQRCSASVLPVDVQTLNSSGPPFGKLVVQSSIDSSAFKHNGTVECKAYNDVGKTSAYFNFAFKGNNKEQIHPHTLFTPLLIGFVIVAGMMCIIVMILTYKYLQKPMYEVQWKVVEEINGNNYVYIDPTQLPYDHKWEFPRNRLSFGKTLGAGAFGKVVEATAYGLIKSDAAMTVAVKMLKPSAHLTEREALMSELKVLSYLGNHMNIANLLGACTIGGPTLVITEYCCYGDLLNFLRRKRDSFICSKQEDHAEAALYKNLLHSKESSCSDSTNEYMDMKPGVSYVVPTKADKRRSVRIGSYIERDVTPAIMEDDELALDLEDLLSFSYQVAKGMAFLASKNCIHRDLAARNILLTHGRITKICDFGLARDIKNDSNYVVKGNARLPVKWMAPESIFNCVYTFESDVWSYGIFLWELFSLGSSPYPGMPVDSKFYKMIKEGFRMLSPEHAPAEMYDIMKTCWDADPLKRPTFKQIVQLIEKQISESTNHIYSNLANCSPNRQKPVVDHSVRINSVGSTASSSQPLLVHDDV
# Sequence of Mast/stem cell growth factor receptor Kit (Homo sapiens), P10721 [T670I] (P10721 whole entry T670I, the tested form may be a part): as the sequence (P10721 whole entry V559D/V654A) above, with D559V, A654V, T670I counted along it
# Sequence of Mast/stem cell growth factor receptor Kit (Homo sapiens, UniProt P10721, D816H) (P10721 26-976 D816H limits assumed): as the sequence (P10721 26-976 V654A limits assumed) above, with A629V, D791H counted along it
# Sequence of Mast/stem cell growth factor receptor Kit (Homo sapiens, UniProt P10721, A829P) (P10721 26-976 A829P limits assumed): as the sequence (P10721 26-976 V654A limits assumed) above, with A629V, A804P counted along it
# Sequence of Mast/stem cell growth factor receptor Kit (Homo sapiens), P10721 [Y823D] (P10721 whole entry Y823D): as the sequence (P10721 whole entry V559D/V654A) above, with D559V, A654V, Y823D counted along it
# Sequence of Mast/stem cell growth factor receptor Kit (Homo sapiens, UniProt P10721, D816V) (P10721 26-976 D816V limits assumed): as the sequence (P10721 26-976 V654A limits assumed) above, with A629V, D791V counted along it
# Sequence of Mast/stem cell growth factor receptor Kit (Homo sapiens, UniProt P10721, T670I) (P10721 26-976 T670I limits assumed): as the sequence (P10721 26-976 V654A limits assumed) above, with A629V, T645I counted along it
# Sequence of Mast/stem cell growth factor receptor Kit (Homo sapiens), P10721 [D820E] (P10721 whole entry D820E, the tested form may be a part): as the sequence (P10721 whole entry V559D/V654A) above, with D559V, A654V, D820E counted along it
# Sequence of Mast/stem cell growth factor receptor Kit (Homo sapiens, UniProt P10721, V560G) (P10721 26-976 V560G limits assumed): as the sequence (P10721 26-976 V654A limits assumed) above, with V535G, A629V counted along it
# Sequence of Mast/stem cell growth factor receptor Kit (Homo sapiens), P10721 [K642E] (P10721 whole entry K642E, the tested form may be a part): as the sequence (P10721 whole entry V559D/V654A) above, with D559V, K642E, A654V counted along it
smiles,measurement,setting,value
CCc1cc(NC(=O)Nc2ccc(-c3cnc(Nc4cc(N5CCN(CC)CC5)ncn4)s3)cc2)no1,Activity,Mus musculus,Dose-dependent effect
same,IC50,[1],8.56 nM
same,GI50,[2],> 100 nM
same,inhibition,[3],55%
same,IC50,[4],82 nM
same,inhibition,[5],73%
same,inhibition,[6],43%
same,IC50,[7],4.14 nM
same,IC50,[8],0.98 nM
same,inhibition,[9],22%
same,inhibition,[10],97%
same,IC50,[11],0.67 nM
same,IC50,[12],0.89 nM
same,inhibition,[13],75%
same,inhibition,[14],82%
same,GI50,GIST430 [15],1 nM
same,inhibition,[16],100%
same,IC50,[17],1.66 nM
same,inhibition,[18],10%
same,inhibition,[19],43%
same,inhibition,[20],63%
same,IC50,[21],92 nM
same,Activity,GIST430 [22],59%
same,GI50,A549,14.6 µM
same,IC50,[23],69 nM
